Results published in article PMC5944028, “Nonclinical and clinical pharmacological characterization of the potent and selective cathepsin K inhibitor MIV-711” (Journal of Translational Medicine, 2018).

Key:
[1] = tested on: plasma CTX-I; assay: Monkey plasma CTX-I, single oral dose; type: in vivo, cynomolgus monkeys (Macaca fascicularis)
Procedure: Eight cynomolgus monkeys (Macaca fascicularis) were used for measuring plasma levels of MIV-711 and CTX-I after a single dose. The animals were healthy young males, approximately 2–4 years old and weighing 3–4 kg. Experiments were performed at Covance Ltd (Harrogate, UK). The monkeys were used over an extended period of time (up to a year) and several cathepsin K inhibitors were evaluated during this time. At least 1 week was allowed for washout in between experiments. This was not believed to affect the results with MIV-711, and vehicle controls were run on a regular basis when appropriate. Each animal received at least one dose of MIV-711 and one dose of vehicle with at least 1 week of washout in between treatments.
In single dose experiments, animals were dosed with vehicle or MIV-711 (3–30 µmol/kg) via oral gavage at a dose volume of 4 mL/kg between 7:30 and 9:00 a.m. Blood samples were collected at baseline, 30 min, 1, 2, 4, 8, 12, 24 and 48 h after dose from the femoral vein and transferred into lithium heparin anticoagulant tubes. The samples were centrifuged and the two aliquots of the resultant plasma were frozen at − 70 °C. All samples were processed and stored within 30 min of collection. The aliquots were used to determine the MIV-711 concentration and CTX-I levels, respectively. [drawing 1]
Since the concentration of MIV-711 was measured in each animal it was possible to relate the MIV-711 exposure over 24 h to the % CTX-I inhibition over 24 h in each animal.
(§1) The quantification of CTX-I in monkey plasma samples and human serum samples was performed using a commercially available kit (Serum CrossLaps ELISA, IDS Nordic, Herlev, Denmark). The levels of CTX-I in monkey urine samples were measured using a commercially available kit (Urine BETA CrossLaps ELISA, IDS Nordic). The quantification of NTX-I in monkey samples was performed using a commercially available kit (Osteomark NTx Urine, Wampole Laboratories, Inc, Princeton, USA). Urinary levels of CTX-II in monkey samples were measured using a commercially available kit (Urine CrossLaps EIA, IDS Nordic). The concentrations of biomarkers in the urine samples were corrected for creatinine concentrations. The creatinine levels in urine were determined at Swedish University of Agricultural Sciences, using the enzymatic assay (cat no. 8L24-01) on the Abbott system Architect c4000.

[2] = target: T1, rat cathepsin K (Rattus norvegicus, UniProt O35186); assay: Recombinant enzyme assay, rat cathepsin K; type: biochemical; settings: footnote a: IC50
T1 construct: made in house; host or cells: E. coli
Excerpt: Recombinant cathepsin K enzymes from all species were expressed in E. coli, purified and activated. Human cathepsin F and cathepsin S were expressed in Baculovirus, purified and activated. Purified human cathepsins B and H (Athens Research Technology), cathepsin L (Calbiochem), and cathepsin V (R & D Systems) were purchased.
H-D-Ala_Leu-Lys-AMC was used as the substrate in assays of cathepsin K from non-rodent species (human, dog, rabbit and guinea pig), and Z-Leu-Arg-AMC was used as the substrate in assays of cathepsin K from rodent species (mouse and rat). […]
Assays were carried out in white polystyrene 96-well plates in a final volume of 100 µL. […] Plates were read in a Fluoroskan Ascent (Thermo Labsystems, Helsinki, Finland) in kinetic mode, with excitation and emission filters of 390 and 460 nm, respectively. Rates were determined by linear regression of the fluorescence/time data in Excel. Rates were fitted by non-linear regression to either the competitive inhibition equation, with the substrate concentration fixed at the value in the assay and the KM fixed to the value previously determined, or the IC50 equation using GraphPad Prism (GraphPad, version 6, San Diego, USA) to obtain Ki or IC50 values, respectively.

[3] = tested on: plasma CTX-I; assay: Monkey plasma CTX-I, repeat oral doses; type: in vivo, cynomolgus monkeys (Macaca fascicularis)
Procedure: Repeat dosing experiments were performed in four male monkeys from the group outlined above (Covance). Vehicle or MIV-711 (30 µmol/kg) was given via oral gavage once daily for 5 days between 7:30 and 8:30 a.m. Plasma for CTX-I measurements was collected on Day 1 at baseline, 1, 2, 4, 8 and 12 h after dose, on Days 2, 3 and 4 early in the morning before next dose (i.e. at trough), and on Day 5 at trough, 1, 2, 4, 8, 12 and 24 h after dose. [drawing 2]
as §1

[4] = 30 µmol/kg p.o. once daily, Day 5

T1 sequence (O35186 115-329): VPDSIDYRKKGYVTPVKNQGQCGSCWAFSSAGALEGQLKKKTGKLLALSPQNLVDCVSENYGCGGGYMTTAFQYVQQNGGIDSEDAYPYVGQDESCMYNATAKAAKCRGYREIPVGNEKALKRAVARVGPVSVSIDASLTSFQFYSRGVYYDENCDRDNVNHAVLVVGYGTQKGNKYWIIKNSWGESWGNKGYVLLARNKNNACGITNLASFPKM

C#C[C@@H]1CN(C(=O)[C@H](CC(C)C)NC(=O)c2ccc(-c3nc(N4CCN(C)CC4)sc3F)cc2)[C@@H]2C(=O)CO[C@H]12 [MIV-711]
Effect on plasma CTX-I versus vehicle ([1]; 3 µmol/kg p.o. (p > 0.05)): did not differ significantly vs. vehicle
Effect on plasma CTX-I versus vehicle ([1]; 10 µmol/kg p.o., between 8 and 24 h post-dose (p < 0.05)): statistically significant versus vehicle
Exposure required for 50% reduction of CTX-I at 24 h post dose ([1]; AUC0–24h): 1.5 µmol/L/h
Reduction of plasma CTX-I compared to baseline ([1]; highest dose (30 µmol/kg p.o.), 24 h post-dose): 57%
IC50 [2]: 240 nM
Maximum reduction of plasma CTX-I from baseline ([3]; 30 µmol/kg p.o. once daily, Day 1, 12 h post dose): 76%
Maximal reduction of plasma CTX-I vs initial baseline [3, 4]: 67%
Trough plasma CTX-I lower than baseline [3, 4]: 38%
Trough plasma CTX-I lower than baseline ([3]; 30 µmol/kg p.o., after the first dose on Day 1): 48%
